Data taken from patent publication US8592490B2, “Self-microemulsifying drug delivery systems” (LEK Pharmaceuticals D.D., priority 2006, dated 2013).
Values after ≈ are worked out from the molar mass of the structure shown.

Key:
[1] = cited from earlier work
[2] = Solubility of candesartan cilexetil in water from solid state emulsion systems, room temperature; format: physicochemical; details: thermodynamic from solid, sample weight 50 mg in 100 ml
Experimental: (§1) The solubility of candesartan cilexetil in water was studied at room temperature. Water dispersion (100 ml) of the sample in the laboratory beaker was mixed on the magnetic stirrer for 60 minutes. Afterwards, the part of the dispersion was taken from the beaker, filtered through the 0.45 μm filter and the concentration of candesartan cilexetil was determined by HPLC.

[3] = Solubility of celecoxib in water from solid state emulsion systems; format: physicochemical; details: thermodynamic from solid, sample weight 100 mg, ultrasound
Experimental: as §1
The solubility of celecoxib in water was determined with the same procedure as described in Example 7.

[4] = Stability of micronized vs unmicronised candesartan cilexetil at 40° C. and 75% humidity (impurities); format: physicochemical
Experimental: This approach is not appropriate for candesartan cilexetil, because any mechanical stress applied to the crystals of candesartan cilexetil leads to deterioration of the crystal structure and/or partial or complete (if mechanical stress is long enough) amorphisation, resulting in decreased stability. For example, when micronized candesartan cilexetil with d(0.9)=5 μm is subjected to 40° C. and 75% humidity for 1 month the impurities changed from 0.33% to 0.85%, compared to 0.19% and 0.10% for the unmicronised sample.

[5] = after 40° C. and 75% humidity for 1 month

Row | impurities [4, 5] | impurities ([4]; initial, before storage) | SMILES | also measured
1 | – | – | CCOc1nc2cccc(C(=O)OC(C)OC(=O)OC3CCCCC3)c2n1Cc1ccc(-c2ccccc2-c2nnn[nH]2)cc1 (centres unmarked) [Candesartan cilexetil] | solubility in phosphate buffer ([1]; phosphate buffer pH=7.0, at 37° C.): less than 0.2 μg/ml; water solubility ([1]; water, at 37° C.): 0.5 µg/mL (≈ 0.819 µM); solubility at 60 min [2]: < 0.1 µg/mL
2 | – | – | Cc1ccc(-c2cc(C(F)(F)F)nn2-c2ccc(S(N)(=O)=O)cc2)cc1 [Celecoxib, 4-[5-(4-methylphenyl)-3-(trifluoromethyl)pyrazol-1-yl]benzenesulfonamide] | solubility at 60 min [3]: 0.3 µg/mL (≈ 0.787 µM)
3 | 0.85% | 0.33% | CCOc1nc2cccc(C(=O)OC(C)OC(=O)OC3CCCCC3)c2n1Cc1ccc(-c2ccccc2-c2nnn[nH]2)cc1 (centres unmarked) [micronized candesartan cilexetil, candesartan cilexetil] | –
4 | 0.10% | 0.19% | CCOc1nc2cccc(C(=O)OC(C)OC(=O)OC3CCCCC3)c2n1Cc1ccc(-c2ccccc2-c2nnn[nH]2)cc1 (centres unmarked) [unmicronised sample, candesartan cilexetil] | –
